Results taken from PubChem BioAssay AID1919008 (Molecular Pharmacology Branch, DTP, NCI, 2023).

Tested on: DMS-114 complex spheroids with HUVEC/MSC, growth % test/control
Experiment: Anticancer human tumor DMS-114 cell line growth inhibition [AhR];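 note: spheroids exposed to agents for 7 days before readout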;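 for viability, T/C: 100% = DMSO vehicle control wells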
Settings: for IC50: curve of first compound; for viability, T/C: stronger effect = lower value
Method in brief: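 Spheroids combined tumor cells with HUVEC endothelial cells and human MSCs as stroma. AhR antagonists were paired with standard or investigational drugs, each dosed in half-log steps down from near clinical Cmax, or from 10 microM where Cmax was unknown.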

[1] = second compound 0.1 µM, first compound 0.00949 µM
[2] = second compound 0.1 µM, first compound 0.03 µM
[3] = second compound 0.1 µM, first compound 0.0949 µM
[4] = second compound 0.1 µM, first compound 0.3 µM
[5] = second compound 0.1 µM, first compound 0.949 µM
[6] = second compound 0.1 µM, first compound 3 µM
[7] = second compound 0.316 µM, first compound 0.00949 µM
[8] = second compound 0.316 µM, first compound 0.03 µM
[9] = second compound 0.316 µM, first compound 0.0949 µM
[10] = second compound 0.316 µM, first compound 0.3 µM
[11] = second compound 0.316 µM, first compound 0.949 µM
[12] = second compound 0.316 µM, first compound 3 µM
[13] = second compound 1 µM, first compound 0.00949 µM
[14] = second compound 1 µM, first compound 0.03 µM
[15] = second compound 1 µM, first compound 0.0949 µM
[16] = second compound 1 µM, first compound 0.3 µM
[17] = second compound 1 µM, first compound 0.949 µM
[18] = second compound 1 µM, first compound 3 µM
[19] = second compound 3.16 µM, first compound 0.00949 µM
[20] = second compound 3.16 µM, first compound 0.03 µM
[21] = second compound 3.16 µM, first compound 0.0949 µM
[22] = second compound 3.16 µM, first compound 0.3 µM
[23] = second compound 3.16 µM, first compound 0.949 µM
[24] = second compound 3.16 µM, first compound 3 µM
[25] = second compound 10 µM, first compound 0.00949 µM
[26] = second compound 10 µM, first compound 0.03 µM
[27] = second compound 10 µM, first compound 0.0949 µM
[28] = second compound 10 µM, first compound 0.3 µM
[29] = second compound 10 µM, first compound 0.949 µM
[30] = second compound 10 µM, first compound 3 µM

CC1COCCN1c1cc(C2(S(C)(=N)=O)CC2)nc(-c2ccnc3[nH]ccc23)n1 (stereo not given) + CC(CO)NC(=O)c1cc(-c2ccc(Cl)cc2)nn(-c2cnn(C)c2)c1=O
IC50 (second compound 0.1 µM): 4220 nM
IC50 (second compound 0.316 µM): 4930 nM
IC50 (second compound 1 µM): 4930 nM
IC50 (second compound 3.16 µM): 2120 nM
IC50 (second compound 10 µM): 1780 nM
viability, T/C (second compound 0.1 µM, first compound 0.0316 µM): 109%
viability, T/C (second compound 0.1 µM, first compound 0.1 µM): 84.7%
viability, T/C (second compound 0.1 µM, first compound 0.316 µM): 96.7%
viability, T/C (second compound 0.1 µM, first compound 1 µM): 84.6%
viability, T/C (second compound 0.1 µM, first compound 3.16 µM): 54.3%
viability, T/C (second compound 0.1 µM, first compound 10 µM): 36.1%
viability, T/C (second compound 0.316 µM, first compound 0.0316 µM): 94.9%
viability, T/C (second compound 0.316 µM, first compound 0.1 µM): 101%
viability, T/C (second compound 0.316 µM, first compound 0.316 µM): 93.4%
viability, T/C (second compound 0.316 µM, first compound 1 µM): 89.5%
viability, T/C (second compound 0.316 µM, first compound 3.16 µM): 62.2%
viability, T/C (second compound 0.316 µM, first compound 10 µM): 30.5%
viability, T/C (second compound 1 µM, first compound 0.0316 µM): 112%
viability, T/C (second compound 1 µM, first compound 0.1 µM): 86.6%
viability, T/C (second compound 1 µM, first compound 0.316 µM): 85.8%
viability, T/C (second compound 1 µM, first compound 1 µM): 91.2%
viability, T/C (second compound 1 µM, first compound 3.16 µM): 55.6%
viability, T/C (second compound 1 µM, first compound 10 µM): 33.4%
viability, T/C (second compound 3.16 µM, first compound 0.0316 µM): 105%
viability, T/C (second compound 3.16 µM, first compound 0.1 µM): 106%
viability, T/C (second compound 3.16 µM, first compound 0.316 µM): 93.6%
viability, T/C (second compound 3.16 µM, first compound 1 µM): 65.4%
viability, T/C (second compound 3.16 µM, first compound 3.16 µM): 43%
viability, T/C (second compound 3.16 µM, first compound 10 µM): 27.1%
viability, T/C (second compound 10 µM, first compound 0.0316 µM): 103%
viability, T/C (second compound 10 µM, first compound 0.1 µM): 96.1%
viability, T/C (second compound 10 µM, first compound 0.316 µM): 98.9%
viability, T/C (second compound 10 µM, first compound 1 µM): 61.1%
viability, T/C (second compound 10 µM, first compound 3.16 µM): 41.3%
viability, T/C (second compound 10 µM, first compound 10 µM): 27.7%

CCN(c1cc(-c2ccc(CN3CCOCC3)cc2)cc(C(=O)NCc2c(C)cc(C)[nH]c2=O)c1C)C1CCOCC1 + CC(CO)NC(=O)c1cc(-c2ccc(Cl)cc2)nn(-c2cnn(C)c2)c1=O
IC50 (second compound 0.1 µM): > 3000 nM
IC50 (second compound 0.316 µM): > 3000 nM
IC50 (second compound 1 µM): > 3000 nM
IC50 (second compound 3.16 µM): > 3000 nM
IC50 (second compound 10 µM): > 3000 nM
viability, T/C [1]: 95.4%
viability, T/C [2]: 86.3%
viability, T/C [3]: 103%
viability, T/C [4]: 100%
viability, T/C [5]: 98%
viability, T/C [6]: 92.5%
viability, T/C [7]: 110%
viability, T/C [8]: 107%
viability, T/C [9]: 104%
viability, T/C [10]: 102%
viability, T/C [11]: 92.8%
viability, T/C [12]: 93%
viability, T/C [13]: 98.3%
viability, T/C [14]: 106%
viability, T/C [15]: 109%
viability, T/C [16]: 104%
viability, T/C [17]: 95.7%
viability, T/C [18]: 101%
viability, T/C [19]: 118%
viability, T/C [20]: 96.5%
viability, T/C [21]: 111%
viability, T/C [22]: 104%
viability, T/C [23]: 93.3%
viability, T/C [24]: 91%
viability, T/C [25]: 117%
viability, T/C [26]: 98.1%
viability, T/C [27]: 117%
viability, T/C [28]: 100%
viability, T/C [29]: 92.4%
viability, T/C [30]: 86.5%

Nc1ncn(C2CC(O)C(CO)S2)c(=O)n1 (stereo not given) + CC(CO)NC(=O)c1cc(-c2ccc(Cl)cc2)nn(-c2cnn(C)c2)c1=O
IC50 (second compound 0.1 µM): > 300 nM
IC50 (second compound 0.316 µM): > 300 nM
IC50 (second compound 1 µM): > 300 nM
IC50 (second compound 3.16 µM): > 300 nM
IC50 (second compound 10 µM): > 300 nM
viability, T/C (second compound 0.1 µM, first compound 0.000949 µM): 117%
viability, T/C (second compound 0.1 µM, first compound 0.003 µM): 101%
viability, T/C [1]: 108%
viability, T/C [2]: 115%
viability, T/C [3]: 85.3%
viability, T/C [4]: 59.5%
viability, T/C (second compound 0.316 µM, first compound 0.000949 µM): 111%
viability, T/C (second compound 0.316 µM, first compound 0.003 µM): 113%
viability, T/C [7]: 92.7%
viability, T/C [8]: 89.5%
viability, T/C [9]: 79.9%
viability, T/C [10]: 58.3%
viability, T/C (second compound 1 µM, first compound 0.000949 µM): 107%
viability, T/C (second compound 1 µM, first compound 0.003 µM): 107%
viability, T/C [13]: 96.9%
viability, T/C [14]: 102%
viability, T/C [15]: 80%
viability, T/C [16]: 55.7%
viability, T/C (second compound 3.16 µM, first compound 0.000949 µM): 112%
viability, T/C (second compound 3.16 µM, first compound 0.003 µM): 107%
viability, T/C [19]: 115%
viability, T/C [20]: 118%
viability, T/C [21]: 66.2%
viability, T/C [22]: 51.9%
viability, T/C (second compound 10 µM, first compound 0.000949 µM): 126%
viability, T/C (second compound 10 µM, first compound 0.003 µM): 108%
viability, T/C [25]: 108%
viability, T/C [26]: 103%
viability, T/C [27]: 87.8%
viability, T/C [28]: 58%

O=C(C=Cn1cnc(-c2cc(C(F)(F)F)cc(C(F)(F)F)c2)n1)NNc1cnccn1 + CC(CO)NC(=O)c1cc(-c2ccc(Cl)cc2)nn(-c2cnn(C)c2)c1=O
IC50 (second compound 0.1 µM): 183 nM
IC50 (second compound 0.316 µM): 156 nM
IC50 (second compound 1 µM): 169 nM
IC50 (second compound 3.16 µM): 180 nM
IC50 (second compound 10 µM): 209 nM
viability, T/C [1]: 103%
viability, T/C [2]: 99.2%
viability, T/C [3]: 63.3%
viability, T/C [4]: 38.2%
viability, T/C [5]: 18.7%
viability, T/C [6]: 7.72%
viability, T/C [7]: 97.8%
viability, T/C [8]: 93.9%
viability, T/C [9]: 57.2%
viability, T/C [10]: 36.1%
viability, T/C [11]: 16.8%
viability, T/C [12]: 7.29%
viability, T/C [13]: 85.8%
viability, T/C [14]: 97.2%
viability, T/C [15]: 59.4%
viability, T/C [16]: 37%
viability, T/C [17]: 16.4%
viability, T/C [18]: 8.32%
viability, T/C [19]: 97.1%
viability, T/C [20]: 121%
viability, T/C [21]: 54.1%
viability, T/C [22]: 43.9%
viability, T/C [23]: 17.7%
viability, T/C [24]: 6.66%
viability, T/C [25]: 95.2%
viability, T/C [26]: 96.4%
viability, T/C [27]: 64.2%
viability, T/C [28]: 44%
viability, T/C [29]: 18.4%
viability, T/C [30]: 9.22%
